For assay [1], the target named is DNA sequence (GAAAGTG C GAAAGTG C GAAAGTG C: SEQ ID No: 28). Briefly: Binding to target DNA sequence, Octet K2. To be noted: Octet K2, 10 to 320 nM, binding and dissociation 60 seconds each, biotin-labeled target sequence. As to the method: In order to verify the cytotoxic activity of IRF-PIPA 3, dsDNA concentration (left view in the figure) and LDH concentration (right view in the figure) in the culture supernatant were measured. The same experiment as that in FIG. 2 was carried out, and the culture supernatant was recovered. A lysate obtained by mixing 2.5×10^5 peritoneal macrophages with 90 μL of 10% FBS-RPMI or D-MEM medium and 10 μL of Lysis Buffer, and then disrupting the cells, was used as a positive control. […] Using Octet K2, the binding of each concentration of IRF-PIPA 3 shown in the figure and a target DNA sequence was analyzed. After mixing a PIPA solution with target DNA, the binding of the two substances was measured for 60 seconds. […] From changes in the binding and dissociation at each concentration over time, a Kd value was calculated as a dissociation constant indicating a binding force. The analysis was performed using Octet K2 (ForteBio) according to standard protocols. A streptavidin-conjugated sensor (ForteBio) was used, and a biotin-labeled target sequence (FASMAC) was allowed to bind to the sensor. Further, according to standard protocols, the binding of 10 to 320 nM IRF-PIPA 3 and the target sequence, and dissociation thereof were analyzed for 60 seconds each.
In general terms: Biolayer interferometry detects binding as a change in optical thickness at a sensor tip.

The next assay deals with IFN-β. Put plainly: IFN-β transcription in peritoneal macrophages treated with mRNA vaccine against SARS-COV-2 (qRT-PCR, ELISA). It counts as cell-based, mice. The following applies: 3 μM or 10 μM, mRNA vaccine (Moderna) 1 μg/mL 20 hours. (In qPCR the cycle at which signal appears reflects the starting amount.)
A further assay deals with IFN-β, IL-6 and TNF-α. Briefly: Cytokine concentration in culture supernatant of Poly(I:C)-stimulated peritoneal macrophages (ELISA). It counts as cell-based, mice. The following applies: 3 or 10 μM 24 h, Poly(I:C) 1 μg/mL 16 h. As to the method:
Peritoneal macrophages were harvested from wild-type mice, and were then seeded on a 96-well plate at a cell density of 2.5×10^5 cells/well, followed by culturing for 2 hours. Thereafter, the cultured cells were washed twice with PBS. Subsequently, IRF-PIPA 3 was suspended in 10% FBS-RPMI or D-MEM to a final concentration of 3 or 10 µM, and was then added to the wells. After completion of the culture for 24 hours, Poly(I:C) was added to the cultured cells to a final concentration of 1 μg/mL, and the obtained mixture was then cultured for 16 hours. The supernatant was recovered, and the concentrations of IFN-β, IL-6, and TNF-α were then measured by ELISA.
(§1) Mouse peritoneal macrophages were harvested from 6-week-old CL57B/6 mice (CLEA Japan, Inc.) by peritoneal lavage using 7 mL of PBS (Nacalai Tesque), and the cells adhered to the culture plate by culture for 2 hours were used in experiments. The culture was carried out using an RPMI or D-MEM medium (Nacalai Tesque) containing 10% FBS (SIGMA-ALDRICH) and Penicillin-Streptomycin mixed solution (Nacalai Tesque). The CL57B/6 mice were bred in an SPF environment.
2×10^4 Raw264.7 cells were seeded on a plate, and were then treated with IRF-PIPA 1, IRF-PIPA 2, IRF-PIPA 3 or IRF-PIPA 4 for 24 hours. […] The concentration of cytokine in the culture supernatant was measured using ELISA kit (R&D SYSTEMS) according to the standard protocols. The culture supernatant was diluted with 1% BSA-PBS, as necessary, and was then analyzed. […] The concentration of cytokine in the culture supernatant was measured using ELISA kit (R&D SYSTEMS) according to the same standard protocols. On the other hand, the concentration of cytokine in mouse plasma was measured by administering 400 μg/mouse IRF-PIPA 3 into the abdominal cavity of wild-type mice, then administering 250 μg of Poly(I:C) into the same abdominal cavity 24 hours after the IRF-PIPA 3 administration, then collecting blood further 2 hours after the Poly(I:C) administration, and then measuring the cytokine concentration in the plasma using ELISA kit (R&D SYSTEMS) according to standard protocols.
Background: ELISA stands for enzyme-linked immunosorbent assay.

Assay [2] relates to Ifnb1, Il6, and Tnf genes. Put plainly: Relative mRNA expression in Poly(I:C)-stimulated peritoneal macrophages (qRT-PCR). It counts as cell-based, mice. The following applies: 6 μM 24 h, Poly(I:C) 1 μg/mL 2, 4 or 6 h, qRT-PCR relative to GAPDH. How it is done: Using PBS, peritoneal macrophages were harvested from mice, and were then seeded on a 96-well plate at a cell density of 2.5×10^5 cells/well, followed by culturing for 2 hours. Thereafter, the cultured cells were washed twice with PBS. IRF-PIPA 3 was suspended in a 10% FBS-RPMI or MEM medium to a final concentration of 6 μM, and the obtained suspension was then added to the cells. After completion of the culture for 24 hours, Poly(I:C) was added to the cultured cells to a final concentration of 1 μg/mL. The obtained mixture was cultured for 2, 4, or 6 hours, and the cells were recovered. Using TRIsure, the recovered cells were suspended at 100 µL/well and was then recovered. Thereafter, the relative expression levels of Ifnb1, Il6, and Tnf genes were measured by qRT-PCR.
as §1
2.5×10^5 Peritoneal macrophages were seeded on a plate, and were then treated with IRF-PIPA 3 for 24 hours. […]

SMILES strings stand for the structures.

As a reminder, the Kd is the constant that tells how readily two partners part at equilibrium. A higher Kd goes with lower affinity. For the compound `CC(=O)Nc1cn(C)c(C(=O)Nc2cc(C(=O)NCCC(=O)Nc3cc(C(=O)Nc4cn(C)c(C(=O)NCCC(=O)Nc5cn(C)c(C(=O)NCCCC(=O)Nc6cc(C(=O)Nc7cc(C(=O)Nc8cc(C(=O)NCCC(=O)Nc9cc(C(=O)Nc%10cc(C(=O)NCCC(=O)NCCCN(C)C)n(C)c%10)n(C)c9)n(C)c8)n(C)c7)n(C)c6)n5)n4)n(C)c3)n(C)c2)n1` [IRF-PIPA 3], in assay [1], the Kd is 22.7 nM. Moreover, the “IFN-b transcription after addition of the mRNA vaccine (Ifnb1 relative expression, IFN-β concentration)” value with IFN-β is “strongly suppressed IFN-b transcription after addition of the mRNA vaccine in a concentration-dependent manner”. In addition, in the assay on IFN-β, IL-6 and TNF-α, the “suppression of IFN-β production” value is “strongly suppresses IFN-β production in a concentration-dependent manner”; the “suppression of IL-6” value was “suppressed, although less strongly than IFN-β”; the “suppression of TNF-α” value was “suppressed, although less strongly than IFN-β”. Also, in assay [2], the “relative expression level of Ifnb1 mRNA” value was “strongly suppressed induction of the expression of Ifnb1 mRNA in a concentration-dependent manner”.

The values above are taken from patent publication US20250268931A1, “TRANSCRIPTIONAL INHIBITOR FOR IMMUNE-RELATED GENE” (The University of Tokyo, priority 2022, published 2025).
